What was measured:
EGFR (L858R) = EGFR (L858R) (Homo sapiens, UniProt P00533, L858R); assay: HotSpot radiometric kinase assay, inhibition of EGFR L858R mutant; format: biochemical; conditions: 33P ATP, room temperature, 120 m
Method in brief: (§1)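 Kinase/substrate pairs in 20 mM HEPES pH 7.5, 10 mM MgCl2, 1 mM EGTA, 0.02% Brij35, 0.02 mg/ml BSA, 0.1 mM Na3VO4, 2 mM DTT, 1% DMSO were preincubated ~20 min with compound. ATP plus 33P-ATP (10 µM final) was added for 120 min at room temperature, and P81 filter binding gave IC50 values.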

EGFR (L858R/T790M) = EGFR (L858R/T790M) (Homo sapiens, UniProt P00533, L858R/T790M); assay: HotSpot radiometric kinase assay, inhibition of EGFR L858R/T790M mutant; format: biochemical; conditions: 33P ATP, room temperature, 120 m
Chain of EGFR (L858R/T790M) (P00533 25-1210 T790M/L858R): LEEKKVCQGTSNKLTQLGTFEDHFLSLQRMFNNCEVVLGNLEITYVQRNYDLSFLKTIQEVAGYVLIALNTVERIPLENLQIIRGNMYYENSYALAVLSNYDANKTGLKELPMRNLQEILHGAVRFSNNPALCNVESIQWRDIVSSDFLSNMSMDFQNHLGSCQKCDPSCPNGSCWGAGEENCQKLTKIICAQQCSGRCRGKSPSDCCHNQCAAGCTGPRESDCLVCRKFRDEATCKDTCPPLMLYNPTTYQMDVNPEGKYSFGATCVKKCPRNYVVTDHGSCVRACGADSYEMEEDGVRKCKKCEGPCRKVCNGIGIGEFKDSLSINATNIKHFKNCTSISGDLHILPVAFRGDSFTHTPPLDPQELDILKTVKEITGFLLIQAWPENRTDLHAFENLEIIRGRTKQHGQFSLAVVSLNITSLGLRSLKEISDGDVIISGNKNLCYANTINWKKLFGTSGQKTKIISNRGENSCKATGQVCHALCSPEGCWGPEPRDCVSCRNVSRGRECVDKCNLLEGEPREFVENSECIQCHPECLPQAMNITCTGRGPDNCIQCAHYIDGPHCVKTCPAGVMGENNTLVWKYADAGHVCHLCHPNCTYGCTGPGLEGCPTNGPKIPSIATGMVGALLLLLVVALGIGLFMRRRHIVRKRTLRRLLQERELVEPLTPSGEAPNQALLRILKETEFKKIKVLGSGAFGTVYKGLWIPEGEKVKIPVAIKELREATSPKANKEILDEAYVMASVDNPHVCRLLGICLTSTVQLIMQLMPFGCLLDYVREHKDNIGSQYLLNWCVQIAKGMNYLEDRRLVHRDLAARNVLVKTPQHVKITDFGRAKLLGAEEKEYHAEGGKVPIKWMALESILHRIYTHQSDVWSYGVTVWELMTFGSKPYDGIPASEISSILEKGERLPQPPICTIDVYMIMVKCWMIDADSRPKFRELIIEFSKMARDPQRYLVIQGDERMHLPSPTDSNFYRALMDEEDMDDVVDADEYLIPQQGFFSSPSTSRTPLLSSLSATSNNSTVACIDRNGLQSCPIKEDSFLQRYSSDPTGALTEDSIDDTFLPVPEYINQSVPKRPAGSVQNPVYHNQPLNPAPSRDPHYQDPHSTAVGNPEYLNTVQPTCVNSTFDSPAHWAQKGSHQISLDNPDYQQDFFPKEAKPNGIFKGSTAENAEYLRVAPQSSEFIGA
Method in brief: (§2)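 Radiometric filter-binding format: ATP plus 33P-ATP ([…]) was added about 20 min after compound to kinase and substrate in HEPES pH 7.5 buffer with Mg2+, EGTA, Brij35, BSA, vanadate, DTT and 1% DMSO. After 120 min at room temperature, reactions were spotted on P81 paper and washed in phosphoric acid; IC50 values fitted.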

EGFR (L858R/T790M/C797S) = EGFR (L858R/T790M/C797S) (Homo sapiens, UniProt P00533, C797S/L858R/T790M); assay: HotSpot radiometric kinase assay, inhibition of EGFR L858R/T790M/C797S mutant; format: biochemical; conditions: 33P ATP, room temperature, 120 m
Method in brief: as §2

EGFR (D746-750) = EGFR (D746-750) (Homo sapiens, UniProt P00533, DEL746-750); assay: HotSpot radiometric kinase assay, inhibition of EGFR 746-750 mutant; format: biochemical; conditions: 33P ATP, room temperature, 120 m
Method in brief: as §2

EGFR (D746-750/C797S) = EGFR (D746-750/C797S) (Homo sapiens, UniProt P00533, C797S/DEL746-750); assay: HotSpot radiometric kinase assay, inhibition of EGFR 746-750/C797S mutant; format: biochemical; conditions: 33P ATP, room temperature, 120 m
Method in brief: as §2

EGFR (D770_N771insNPG) = EGFR (D770_N771insNPG) (Homo sapiens, UniProt P00533, INS770NPG); assay: HotSpot radiometric kinase assay, inhibition of EGFR (D770_N771insNPG) mutant; format: biochemical; conditions: 33P ATP, room temperature, 120 m
Method in brief: as §2

EGFR WT = EGFR WT (Homo sapiens, UniProt P00533); assay: HotSpot radiometric kinase assay, inhibition of EGFR WT; format: biochemical; conditions: 33P ATP, room temperature, 120 m
Chain of EGFR WT (P00533 25-1210): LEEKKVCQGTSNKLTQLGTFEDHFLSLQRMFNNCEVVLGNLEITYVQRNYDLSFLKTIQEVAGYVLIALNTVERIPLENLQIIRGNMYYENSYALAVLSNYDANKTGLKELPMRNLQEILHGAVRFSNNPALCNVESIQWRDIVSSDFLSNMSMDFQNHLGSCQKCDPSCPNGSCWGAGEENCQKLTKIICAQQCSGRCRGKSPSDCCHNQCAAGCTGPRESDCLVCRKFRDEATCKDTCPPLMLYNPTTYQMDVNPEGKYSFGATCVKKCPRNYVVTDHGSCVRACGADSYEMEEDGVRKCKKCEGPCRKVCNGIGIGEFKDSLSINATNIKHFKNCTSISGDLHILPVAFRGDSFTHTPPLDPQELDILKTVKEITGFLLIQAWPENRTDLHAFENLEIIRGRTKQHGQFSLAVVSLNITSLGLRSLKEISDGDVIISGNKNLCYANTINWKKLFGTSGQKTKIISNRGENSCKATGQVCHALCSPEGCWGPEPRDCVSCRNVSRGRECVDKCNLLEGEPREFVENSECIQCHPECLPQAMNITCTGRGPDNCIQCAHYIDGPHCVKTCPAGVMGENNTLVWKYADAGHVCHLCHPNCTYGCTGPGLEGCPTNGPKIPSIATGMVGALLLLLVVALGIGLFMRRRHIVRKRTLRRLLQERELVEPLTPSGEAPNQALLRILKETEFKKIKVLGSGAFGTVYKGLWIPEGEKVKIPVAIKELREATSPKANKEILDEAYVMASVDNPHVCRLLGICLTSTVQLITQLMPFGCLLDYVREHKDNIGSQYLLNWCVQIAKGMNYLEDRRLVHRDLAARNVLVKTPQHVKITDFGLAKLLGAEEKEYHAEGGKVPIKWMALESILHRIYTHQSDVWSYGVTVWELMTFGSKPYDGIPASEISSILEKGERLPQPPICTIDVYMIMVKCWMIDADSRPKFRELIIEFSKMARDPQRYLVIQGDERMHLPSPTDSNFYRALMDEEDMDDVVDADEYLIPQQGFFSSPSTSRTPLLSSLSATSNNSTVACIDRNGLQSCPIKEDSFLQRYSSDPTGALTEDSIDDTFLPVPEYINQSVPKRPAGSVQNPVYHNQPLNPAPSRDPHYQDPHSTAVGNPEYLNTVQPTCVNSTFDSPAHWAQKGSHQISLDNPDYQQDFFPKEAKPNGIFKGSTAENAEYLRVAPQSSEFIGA
Method in brief: as §1

[1] = molecular target: T1, pEGFR, PC-9 cells (d746-750 EGFR) (Homo sapiens, UniProt P00533, DEL746-750); assay: Cellular EGFR phosphorylation assay (LANCE Ultra TR-FRET) in PC-9 cells; format: cell-based; conditions: 4 hours at 37° C., read-out: PC-9 pEGFR IC50
T1 construct: pEGFR (Tyr1068) TR-FRET
Method in brief: (§3)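 Cells were treated with compound for 4 h at 37 °C as a 9-point, 3-fold titration; A431 cells were stimulated with 40 ng/mL EGF for the final 10 min. Phospho-EGFR (Tyr1068) in lysates was read by TR-FRET after 4-6 h antibody incubation, and IC50 values were fitted.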

[2] = molecular target: T2, pEGFR, NCI-H1975 cells (L858R/T790M EGFR) (Homo sapiens, UniProt P00533, L858R/T790M); assay: Cellular EGFR phosphorylation assay (LANCE Ultra TR-FRET) in NCI-H1975 cells; format: cell-based; conditions: 4 hours at 37° C., read-out: H1975 pEGFR IC50
T2 construct: pEGFR (Tyr1068) TR-FRET
T2 sequence (P00533 25-1210 T790M/L858R): as the sequence (P00533 25-1210 T790M/L858R) above
Method in brief: as §3

[3] = molecular target: T3, pEGFR, A431 cells (wildtype EGFR) (Homo sapiens, UniProt P00533); assay: Cellular EGFR phosphorylation assay (LANCE Ultra TR-FRET) in A431 cells; format: cell-based; conditions: 4 hours at 37° C., 40 ng/mL EGF for the final 10 minutes, read-out: A431 pEGFR IC50
T3 construct: pEGFR (Tyr1068) TR-FRET
T3 sequence (P00533 25-1210): as the sequence (P00533 25-1210) above
Method in brief: as §3

PC-9 cells = assay: 5-Day CellTiter Glo (CTG) cell proliferation assay, PC-9; format: cell-based; conditions: Homo sapiens; PC-9 cells (d746-750 EGFR), 5-day CTG proliferation, 120 hours; read-out: PC-9 IC50
Method in brief: (§4)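 Proliferation of EGFR-driven NSCLC cells was scored as CellTiter-Glo 2.0 luminescence after a 5-day (120 h) incubation with compounds in 9 doses. IC50 values came from the dose-response curves.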

NCI-H1975 cells = assay: 5-Day CellTiter Glo (CTG) cell proliferation assay, NCI-H1975; format: cell-based; conditions: Homo sapiens; NCI-H1975 cells (L858R/T790M EGFR), 5-day CTG proliferation, 120 hours; read-out: H1975 IC50
Method in brief: as §4

HCC827 cells = assay: 5-Day CellTiter Glo (CTG) cell proliferation assay, HCC827; format: cell-based; conditions: Homo sapiens; HCC827 cells (d746-750 EGFR), 5-day CTG proliferation, 120 hours; read-out: HCC827 IC50
Method in brief: as §4

[4] = tested on: BaF3 cells with engineered EGFR L858R/T790M/C797S; assay: 3-Day CellTiter Glo (CTG) cell proliferation assay, BaF3 EGFR L858R/T790M/C797S; format: cell-based; conditions: Mus musculus, 3-day CTG proliferation, 72 hours
Method in brief: (§5)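 Growth inhibition in transgene-bearing BaF3 lines was scored after three days of compound treatment by CellTiter-Glo 2.0 ATP luminescence, yielding IC50 values.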

[5] = tested on: BaF3 cells with engineered EGFR L858R/C797S; assay: 3-Day CellTiter Glo (CTG) cell proliferation assay, BaF3 EGFR L858R/C797S; format: cell-based; conditions: Mus musculus, 3-day CTG proliferation, 72 hours
Method in brief: as §5

[6] = tested on: BaF3 cells with engineered EGFR d746-750/T790M; assay: 3-Day CellTiter Glo (CTG) cell proliferation assay, BaF3 EGFR d746-750/T790M; format: cell-based; conditions: Mus musculus; BaF3 EGFR d746-750/T790M cells, 3-day CTG proliferation, 72 hours
Method in brief: as §5

Row | SMILES | IC50 (EGFR (L858R)) [nM] | IC50 (EGFR (L858R/T790M)) [nM] | IC50 (EGFR (L858R/T790M/C797S)) [nM] | IC50 (EGFR (D746-750)) [nM] | IC50 (EGFR (D746-750/C797S)) [nM] | IC50 (EGFR (D770_N771insNPG)) [nM] | IC50 (EGFR WT) [nM] | IC50 [1] [nM] | IC50 [2] [nM] | IC50 [3] [nM] | IC50 (PC-9 cells) [nM] | IC50 (NCI-H1975 cells) [nM] | IC50 (HCC827 cells) [nM] | IC50 [4] [nM] | IC50 [5] [nM] | IC50 [6] [nM]
1 | CCOc1nn(CCO)c2c1/C=C/c1n[nH]c3cnc(cc13)-c1c(C)nn(C)c1O[C@@H](C)CN(CC)C2 [Ex. 15, 2-[(10S,17E)-16-ethoxy-12-ethyl-6,8,10-trimethyl-2,8,10,11,12,13-hexahydro-14H-5,3-(azenometheno)tripyrazolo[3,4-f:3′,4′-j:4″,3″-n][1,4]oxazacyclopentadecin-14-yl]ethan-1-ol] | 0.27 | 0.37 | 0.37 | 0.6 | 0.24 | 0.22 | 0.12 | 1.05 | 1.86 | 7.48 | 0.33 | 0.76 | 0.18 | 0.79 | 0.06 | 0.58
2 | CCN1Cc2c(c(OCC#N)nn2CCO)/C=C/c2n[nH]c3cnc(cc23)-c2c(C)nn(C)c2O[C@@H](C)C1 [Ex. 23, {[(10S,17E)-12-ethyl-14-(2-hydroxyethyl)-6,8,10-trimethyl-2,10,11,12,13,14-hexahydro-8H-5,3-(azenometheno)tripyrazolo[3,4-f:3′,4′-j:4″,3″-n][1,4]oxazacyclopentadecin-16-yl]oxy}acetonitrile] | 1.02 | 0.6 | 0.47 | 0.36 | 1.01 | 0.29 | 0.31 | 3.42 | 5.84 | 43.1 | 2.91 | 10 | 0.41 | 2.69 | 0.43 | 3.77
3 | CCN1Cc2c(c(C)nn2CCO)/C=C/c2n[nH]c3cnc(cc23)-c2c(C)nn(C)c2O[C@H](C)C1 [Ex. 14, 2-[(10R,17E)-12-ethyl-6,8,10,16-tetramethyl-2,8,10,11,12,13-hexahydro-14H-5,3-(azenometheno)tripyrazolo[3,4-f:3′,4′-j:4″,3″-n][1,4]oxazacyclopentadecin-14-yl]ethan-1-ol] | 0.25 | 0.23 | 0.22 | 0.47 | 0.2 | 0.15 | 0.08 | 11.8 | 7.52 | 44.7 | 54.5 | 110 | 2.87 | 5.24 | 1.24 | 22.3
4 | CCOc1nn(CCO)c2c1/C=C/c1n[nH]c3cnc(cc13)-c1c(C)nn(C)c1O[C@@H](C)CN(C(C)C)C2 [Ex. 8, 2-[(10S,17E)-16-ethoxy-6,8,10-trimethyl-12-(propan-2-yl)-2,8,10,11,12,13-hexahydro-14H-5,3-(azenometheno)tripyrazolo[3,4-f:3′,4′-j:4″,3″-n][1,4]oxazacyclopentadecin-14-yl]ethan-1-ol] | 0.35 | 0.7 | 0.48 | 0.55 | 0.37 | 0.32 | 0.15 | 1.05 | 1.54 | 8.1 | 0.36 | 0.92 | 0.11 | 0.81 | 0.1 | 0.44

Results, then the compound that gave them:

Row | IC50 (EGFR (L858R)) [nM] | IC50 (EGFR (L858R/T790M)) [nM] | IC50 (EGFR (L858R/T790M/C797S)) [nM] | IC50 (EGFR (D746-750)) [nM] | IC50 (EGFR (D746-750/C797S)) [nM] | IC50 (EGFR (D770_N771insNPG)) [nM] | IC50 (EGFR WT) [nM] | IC50 [1] [nM] | IC50 [2] [nM] | IC50 [3] [nM] | IC50 (PC-9 cells) [nM] | IC50 (NCI-H1975 cells) [nM] | IC50 (HCC827 cells) [nM] | IC50 [4] [nM] | IC50 [5] [nM] | IC50 [6] [nM] | SMILES
5 | 0.51 | 1.11 | 4.08 | 0.45 | 1.32 | 0.59 | 0.43 | 3.24 | 8.91 | 15.6 | 2.14 | 19.5 | 0.53 | 2.46 | 0.29 | 1.44 | CCOc1nn(CCO)c2c1/C=C/c1n[nH]c3cnc(cc13)-c1c(C)nn(C)c1OC[C@@H](C)N(CC)C2 [Ex. 18, 2-[(11R,17E)-16-ethoxy-12-ethyl-6,8,11-trimethyl-2,8,10,11,12,13-hexahydro-14H-5,3-(azenometheno)tripyrazolo[3,4-f:3′,4′-j:4″,3″-n][1,4]oxazacyclopentadecin-14-yl]ethan-1-ol]
6 | 0.15 | 0.16 | 0.13 | 0.21 | 0.21 | 0.1 | 0.05 | 0.64 | 1.54 | 6.08 | 0.7 | 0.95 | 0.34 | 0.69 | 0.06 | 0.57 | CCOc1nn([C@@H](C)CO)c2c1/C=C/c1n[nH]c3c(C)nc(cc13)-c1c(C)nn(C)c1O[C@H](C)[C@H]1CCCN1C2 [Ex. 180, (2S)-2-[(8aR,9R,19E)-1-ethoxy-9,11,13,21-tetramethyl-7,8,8a,9,11,17-hexahydro-6H-14,16-(azenometheno)tripyrazolo[3,4-f:3′,4′-j:4″,3″-n]pyrrolo[2,1-c][1,4]oxazacyclopentadecin-3(4H)-yl]propan-1-ol]
7 | 0.16 | 0.2 | 0.19 | 0.41 | 0.16 | 0.07 | 0.05 | 1 | 2.09 | 12 | 0.38 | 4.27 | 0.26 | 1.05 | 0.1 | 1.46 | CCN1Cc2c(c(C)nn2CCO)/C=C/c2n[nH]c3cnc(cc23)-c2c(C)nn(C)c2O[C@@H](C)C1 [Ex. 13, 2-[(10S,17E)-12-ethyl-6,8,10,16-tetramethyl-2,8,10,11,12,13-hexahydro-14H-5,3-(azenometheno)tripyrazolo[3,4-f:3′,4′-j:4″,3″-n][1,4]oxazacyclopentadecin-14-yl]ethan-1-ol]
8 | 2.39 | 1.44 | 0.93 | 0.73 | 1.97 | 0.9 | 0.8 | 1.6 | 3.4 | 12.2 | 0.44 | 1.11 | 0.27 | 1.16 | 0.11 | 0.66 | CCOc1nn([C@@H](C)CO)c2c1/C=C/c1n[nH]c3cnc(cc13)-c1c(C)nn(C)c1O[C@@H](C)CN(CC)C2 [Ex. 26, (2S)-2-[(10S,17E)-16-ethoxy-12-ethyl-6,8,10-trimethyl-2,8,10,11,12,13-hexahydro-14H-5,3-(azenometheno)tripyrazolo[3,4-f:3′,4′-j:4″,3″-n][1,4]oxazacyclopentadecin-14-yl]propan-1-ol]
